Laboratory results reported in patent publication US11648248B1 (King Abdulaziz University, priority 2022, dated 2023).
Converted amounts (≈) assume the structure as drawn. Read-outs that look alike come from different tables or passages of the source.

What was measured:
Assay in all cases: MIC broth microdilution, initial screening
Format in all cases: cell-based
[1] = tested on: Methicillin-resistant Staphylococcus aureus NRS384 (MRSA USA300)
Experimental: (§1) The minimum inhibitory concentrations (MICs) of the tested compounds and control drugs (linezolid, vancomycin, gentamicin (antibiotics) and fluconazole and 5-fluorocytosine (5-FC) (antifungal drugs)) were determined using the broth microdilution method, according to guidelines outlined by the Clinical and Laboratory Standards Institute (CLSI, Clinical and Laboratory Standards Institute, Methods for antimicrobial susceptibility testing of anaerobic bacteria; approved standard, M11-A8. 8th ed., 2012; CLSI, Clinical and Laboratory Standards Institute. M27-A3 Reference Method for Broth Dilution Antifungal Susceptibility Testing of Yeasts; Approved Standard—Third Edition, Wayne, Pa., 2008) against clinically-relevant bacterial (methicillin-resistant Staphylococcus aureus (MRSA), Escherichia coli, and C. difficile strains) and fungal (Candida albicans) strains. S. aureus and E. coli were grown aerobically overnight on tryptone soy agar plates at 37° C. C. difficile was grown anaerobically on brain heart infusion supplemented agar at 37° C. for 48 hours. C. albicans was grown aerobically overnight on yeast peptone dextrose (YPD) agar plate at 35° C. Afterwards, a bacterial solution equivalent to 0.5 McFarland standard was prepared and diluted in cation-adjusted Mueller-Hinton broth (CAMHB) (for S. aureus and E. coli) to achieve a bacterial concentration of about 5×10^5 CFU/mL. C. difficile was diluted in brain heart infusion supplemented broth, supplemented with yeast extract, hemin and vitamin K to achieve a bacterial concentration of about 5×10^5 CFU/mL. C. albicans was diluted in Roswell Park Memorial Institute (RPMI 1640) medium with glutamine and without bicarbonate (GIBCO by Life Technologies, Green Island, N.Y., USA) which was buffered to pH 7.0 with 0.165 M of [3-(N-morpholino) propanesulfonic acid] (MOPS) (DOT Scientific Inc., Burton, Mich., USA) to achieve a fungal concentration of about 1.5×10^3 CFU/mL. Compounds and control drugs were added in the first row of the 96-well plates and serially diluted with the corresponding media containing bacteria. Plates were then incubated aerobically at 37° C. for 18-20 hours (for S. aureus and E. coli). C. difficile was incubated anaerobically at 37° C. for 48 hours. C. albicans was incubated aerobically at 37° C. for 24 hours.
(§2) The minimum inhibitory concentrations (MICs) of the tested compounds and control drugs; linezolid, vancomycin, gentamicin (antibiotics) and fluconazole and 5-fluorocytosine (5-FC) (antifungal drugs) were determined using the broth microdilution method, according to guidelines outlined by the Clinical and Laboratory Standards Institute (CLSI)^1, 2, 3 against clinically-relevant bacterial (methicillin-resistant Staphylococcus aureus (MRSA), Escherichia coli and Clostridium difficile strains) and fungal (Candida albicans) strain. S. aureus and E. coli were grown aerobically overnight on tryptone soy agar plates at 37° C. C. difficile was grown anaerobically on brain heart infusion supplemented agar at 37° C. for 48 hours. C. albicans was grown aerobically overnight on yeast peptone dextrose (YPD) agar plate at 35° C. Afterwards, a bacterial solution equivalent to 0.5 McFarland standard was prepared and diluted in cation-adjusted Mueller-Hinton broth (CAMHB) (for S. aureus and E. coli) to achieve a bacterial concentration of about 5×10^5 CFU/mL. C. difficile was diluted in brain heart infusion supplemented broth, supplemented with yeast extract, hemin and vitamin K to achieve a bacterial concentration of about 5×10^5 CFU/mL. C. albicans was diluted in Roswell Park Memorial Institute (RPMI 1640) medium with glutamine and without bicarbonate (GIBCO by Life Technologies, Green Island, N.Y., USA) which was buffered to pH 7.0 with 0.165 M of [3-(N-morpholino) propanesulfonic acid]

C. albicans (ATCC 64124) = settings: Candida albicans, read-out: minimum inhibitory concentration (MIC) C. albicans (ATCC 64124)
Experimental: as §1, §2

[2] = tested on: Clostridium difficile (ATCC-BAA1870); settings: anaerobic, 48 hours; for MIC: Clostridioides difficile, ATCCBAA1870, 48 h, read-out: minimum inhibitory concentration (MIC) C. difficile (ATCC-BAA1870)
Experimental: as §1, §2

[3] = tested on: Escherichia coli JW55031 (TolC mutant); settings: for MIC: Escherichia coli, read-out: minimum inhibitory concentration (MIC) E. coli (TolC mutant), E. coli JW55031, 18-20 hours
Experimental: as §1, §2

[4] = tested on: Escherichia coli BW25113 (wild-type); settings: for MIC: Escherichia coli, E. coli BW25113, 18-20 hours, read-out: minimum inhibitory concentration (MIC) E. coli (Wild-type)
Experimental: as §1, §2

[5] = read-out: minimum inhibitory concentration (MIC) S. aureus (MRSA USA300), MRSA NRS384 (USA300), broth microdilution, 18-20 hours

Compound	MIC ([1]; MRSA|NRS384|USA300, read-out: minimum inhibitory concentration (MIC) S. aureus (MRSA USA300), MRSA NRS384 (USA300), broth microdilution, 18-20 hours)	MIC (C. albicans (ATCC 64124); ATCC64124, 24 h)	minimum inhibitory concentration (MIC) C. difficile (ATCC-BAA1870) [2]	MIC [3]	MIC [4]	MIC (C. albicans (ATCC 64124); ATCC64124, RPMI 1640, 24 hours)	MIC [1, 5]	MIC [2]	minimum inhibitory concentration (MIC) E. coli (TolC mutant) ([3]; E. coli JW55031, 18-20 hours)	minimum inhibitory concentration (MIC) E. coli (Wild-type) ([4]; 18-20 hours)
Cc1cc(Cl)ccc1NC(=O)Nc1ccc(-c2ccc(=O)[nH]n2)cc1	> 128 µg/mL	> 128 µg/mL	64 µg/mL (≈ 180 µM)	64 µg/mL (≈ 180 µM)	> 128 µg/mL					
Nc1nc(=O)[nH]cc1F [5-Fluorocytosine, 5-fluorocytosine, reference compound]						0.25 µg/mL (≈ 1.94 µM)				
OC(Cn1cncn1)(Cn1cncn1)c1ccc(F)cc1F [Fluconazole, reference compound]						> 128 µg/mL				
Cc1cccc(NC(=O)Nc2ccc(Oc3ccc(=O)[nH]n3)cc2)c1 [MY32, 1-(4-((6-oxo-1,6-dihydropyridazin-3-yl)oxy)phenyl)-3-(m-tolyl)urea]		> 128 µg/mL		> 128 µg/mL	> 128 µg/mL		> 128 µg/mL	> 128 µg/mL		
COc1ccc(NC(=O)Nc2cccc(-c3ccc(=O)[nH]n3)c2)cc1 [MY33, 1-(4-methoxyphenyl)-3-(3-(6-oxo-1,6-dihydropyridazin-3-yl)phenyl)urea]		> 128 µg/mL		> 128 µg/mL	> 128 µg/mL		> 128 µg/mL	> 128 µg/mL		
O=C(Nc1cccc(Nc2ccc(=O)[nH]n2)c1)Nc1ccc(Cl)c(Cl)c1 [MY49, 1-(3,4-dichlorophenyl)-3-(3-((6-oxo-1,6-dihydropyridazin-3-yl)amino)phenyl)urea]		> 128 µg/mL		> 128 µg/mL	> 128 µg/mL		> 128 µg/mL	> 128 µg/mL		
O=C(Nc1cccc(Nc2ccc(=O)[nH]n2)c1)Nc1ccc(Cl)c(C(F)(F)F)c1 [MY50, 1-(4-chloro-3-(trifluoromethyl)phenyl)-3-(3-((6-oxo-1,6-dihydropyridazin-3-yl)amino)phenyl)urea]		> 128 µg/mL		128 µg/mL (≈ 302 µM)	> 128 µg/mL		> 128 µg/mL	> 128 µg/mL		
Gentamicin [reference compound]									0.25 µg/mL	0.5 µg/mL
